target: T1, HCV NS5B RdRp genotype 1b (Hepatitis C virus genotype 1b, UniProt Q9WMX2); assay: HCV NS5B RdRp enzyme assay; assay type: biochemical; settings: IC50, HCV RdRp genotype 1b enzyme, C-terminal 18 aa truncated; average of single point IC50 values
T1 construct: The protein was expressed with an 18 amino acid C-terminal truncation to enhance the solubility; made in house; host or cells: E. coli BL21(DE3)
Procedure: HCV NS5B RdRp cloning, expression and purification. The cDNA encoding the NS5B protein of HCV, genotype 1b, was cloned into the pET21a expression vector. The protein was expressed with an 18 amino acid C-terminal truncation to enhance the solubility. The E. coli competent cell line BL21(DE3) was used for expression of the protein. Cultures were grown at 37° C. for ˜4 hours until the cultures reached an optical density of 2.0 at 600 nm. The cultures were cooled to 20° C. and induced with 1 mM IPTG. Fresh ampicillin was added to a final concentration of 50 ug/ml and the cells were grown overnight at 20° C.
Cell pellets (3L) were lysed for purification to yield 15-24 mgs of purified NS5B. The lysis buffer consisted of 20 mM Tris-HCl, pH 7.4, 500 mM NaCl, 0.5% triton X-100, 1 mM DTT, 1 mM EDTA, 20% glycerol, 0.5 mg/ml lysozyme, 10 mM MgCl2, 15 ug/ml deoxyribonuclease I, and Complete TM protease inhibitor tablets (Roche). After addition of the lysis buffer, frozen cell pellets were resuspended using a tissue homogenizer. To reduce the viscosity of the sample, aliquots of the lysate were sonicated on ice using a microtip attached to a Branson sonicator. The sonicated lysate was centrifuged at 100,000×g for 1 hr at 4° C. and filtered through a 0.2 μm filter unit (Corning).
The protein was purified using three sequential chromatography steps: Heparin sepharose CL-6B, polyU sepharose 4B, and Hitrap SP sepharose (Pharmacia). The chromatography buffers were identical to the lysis buffer but contained no lysozyme, deoxyribonuclease I, MgCl2 or protease inhibitor and the NaCl concentration of the buffer was adjusted according to the requirements for charging the protein onto the column. Each column was eluted with a NaCl gradient which varied in length from 5-50 column volumes depending on the column type. After the final chromatography step, the resulting purity of the enzyme is >90% based on SDS-PAGE analysis. The enzyme was aliquoted and stored at −80° C.
HCV NS5B RdRp enzyme assay. HCV RdRp genotype 1b assays were run in assay buffer composed of 20 mM Tris-HCl, pH 7.5, 2.5 mM KCl, 5 mM MgCl2, 1 mM DTT, 1.6 U RNAse inhibitor (Promega N2515), in 96 well plates (Falcon 3918). All compounds were serially diluted in DMSO and diluted further in assay buffer such that the final concentration of DMSO in the assay was 2%. Compounds were serially diluted (3-fold each time) for a 7 point inhibition analysis. HCV RdRp genotype 1b enzyme was used at a final concentration of 28 nM. A polyA template was used at 28 nM, and the oligo-dT12-18 primer was used at 840 nM final concentration. Preannealed primer and template were obtained commercially (Amersham 27-787802). ^3H-UTP was used at 0.125 μCi (1 μM total UTP). Reaction was initiated by the addition of enzyme. Reactions were incubated at 30° C. for 45 min, and stopped by adding 30 ul of 20% ice cold TCA. Plates were chilled for 30 minutes and harvested onto Unifilter-96, GF/B plates (Packard, 6005177) using a Packard FilterMate Cell Harvester. The harvest plates were prewashed 3 times, 200 ul/well, with 100 mM NaPPi. Harvested filters were washed 30 times, 200 ul/well, with distilled water followed by ethanol. Filter plates were dried, and 30 ul/well microscint-20 was added. Plates were read on a Packard Top Count NXT.
The IC50 values for compounds were determined using […] different [I], combined with 7 nM enzyme, 800 ng of the template-primer polyC/oligoG12 (1:5 molar ratio), and 0.7 uM of ^3H GTP containing 1 uCi. The observed fractional activity (fa=vi/vo) was used in the equation IC50=[I]/(1/fa-1) to determine a single point IC50 value. Typically, the single point IC50 values derived from [I] that produced fractional activities in the range of 0.1 to 0.8 relative to the uninhibited control were averaged to calculate the IC50 value for each compound.

T1 sequence (Q9WMX2 2420-2992): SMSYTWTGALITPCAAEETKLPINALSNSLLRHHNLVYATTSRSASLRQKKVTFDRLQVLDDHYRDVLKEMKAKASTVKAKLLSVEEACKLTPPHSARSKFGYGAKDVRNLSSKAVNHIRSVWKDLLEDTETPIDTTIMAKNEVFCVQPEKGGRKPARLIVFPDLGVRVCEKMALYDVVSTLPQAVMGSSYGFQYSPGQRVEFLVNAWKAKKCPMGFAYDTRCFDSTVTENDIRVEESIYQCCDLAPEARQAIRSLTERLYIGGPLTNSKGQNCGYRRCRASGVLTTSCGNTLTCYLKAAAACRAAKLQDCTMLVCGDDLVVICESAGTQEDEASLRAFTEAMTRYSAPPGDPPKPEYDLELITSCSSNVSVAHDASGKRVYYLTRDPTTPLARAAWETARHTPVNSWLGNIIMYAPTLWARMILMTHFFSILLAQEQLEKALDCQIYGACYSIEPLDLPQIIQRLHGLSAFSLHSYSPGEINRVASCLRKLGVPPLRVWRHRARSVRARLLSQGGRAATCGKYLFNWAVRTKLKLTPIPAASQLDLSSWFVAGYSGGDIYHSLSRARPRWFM

Row | SMILES | IC50 [µM]
1 | c1ccc(C(Oc2ccc(-c3nc4cc(-c5nnn[nH]5)ccc4n3C3CCCCC3)cc2)c2ccccc2)cc1 [Example 1, 2-[4-(Diphenylmethoxy)phenyl]-1-cyclohexyl-5-(1H-tetrazol-5-yl)-1H-benzimidazole] | 0.63
2 | COc1ccc(-c2ccc(Cl)cc2)c(COc2ccc(-c3nc4cc(-c5nnn[nH]5)ccc4n3C3CCCCC3)cc2)c1 [Example 3, 2-{4-[(4′-Chloro-4-methoxy-1,1′-biphenyl-2-yl)methoxy]phenyl}-1-cyclohexyl-5-(1H-tetrazol-5-yl)-1H-benzimidazole] | 0.14
3 | O=C(O)c1ccc(-c2cncnc2)c(COc2ccc(-c3nc4cc(-c5nnn[nH]5)ccc4n3C3CCCCC3)cc2)c1 [Example 4, 3-[[4-[1-Cyclohexyl-5-(1H-tetrazol-5-yl)-1H-benzimidazol-2-yl]phenoxy]methyl]-4-(5-pyrimidinyl)benzoic acid] | 0.63
4 | COc1ccccc1-c1nc(COc2ccc(-c3nc4cc(-c5nnn[nH]5)ccc4n3C3CCCCC3)cc2)no1 [Example 5, 1-Cyclohexyl-2-[4-[5-(2-methoxyphenyl)-1,2,4-oxadiazol-3-ylmethoxy]phenyl]-5-[1H-tetrazol-5-yl]-1H-benzimidazole] | 0.36
5 | O=c1[nH]c(-c2ccc3c(c2)nc(-c2ccc(OCc4ccccc4)cc2)n3C2CCCCC2)no1 [Example 10, 3-{2-[4-(Benzyloxy)phenyl]-1-cyclohexyl-1H-benzimidazol-5-yl}-1,2,4-oxadiazol-5(4H)-one] | 0.85
6 | COC(=O)c1ccc(C(=O)NS(=O)(=O)c2ccc3c(c2)nc(-c2ccc(OCc4ccccc4)cc2)n3C2CCCCC2)cc1 [Example 17, 4-[2-(4-Benzyloxyphenyl)-1-cyclohexyl-1H-benzoimidazole-5-sulfonylaminocarbonyl]-benzoic acid methyl ester] | 5.21
7 | O=C(O)c1ccc(C(=O)NS(=O)(=O)c2ccc3c(c2)nc(-c2ccc(OCc4ccccc4)cc2)n3C2CCCCC2)cc1 [Example 18, 4-[2-(4-Benzyloxyphenyl)-1-cyclohexyl-1H-benzimidazole-5-sulfonylaminocarbonyl]-benzoic acid] | 1.52
8 | O=C(O)CC(=O)NS(=O)(=O)c1ccc2c(c1)nc(-c1ccc(OCc3ccccc3)cc1)n2C1CCCCC1 [Example 20, 3-[2-(4-Benzyloxy-phenyl)-1-cyclohexyl-1H-benzoimidazole-5-sulfonylamino]-3-oxo-propionic acid] | 8.2
9 | O=C(O)C(=O)NS(=O)(=O)c1ccc2c(c1)nc(-c1ccc(OCc3ccccc3)cc1)n2C1CCCCC1 [Example 22, [2-(4-Benzyloxy-phenyl)-1-cyclohexyl-1H-benzoimidazole-5-sulfonylamino]-3-oxo-acetic acid] | 8.09
10 | O=C(O)c1ccc(-c2ccc(Cl)cc2)c(COc2ccc(-c3nc4cc(-c5nnn[nH]5)ccc4n3C3CCCCC3)cc2)c1 [Example 23] | 0.02
11 | O=C(O)c1ccc(-c2ccc(F)cc2)c(COc2ccc(-c3nc4cc(-c5nnn[nH]5)ccc4n3C3CCCCC3)cc2)c1 [Example 24] | 0.05
12 | COc1ccc(-c2ccc(C(=O)O)cc2COc2ccc(-c3nc4cc(-c5nnn[nH]5)ccc4n3C3CCCCC3)cc2)cc1 [Example 25] | 0.04
13 | CSc1ccc(-c2ccc(C(=O)O)cc2COc2ccc(-c3nc4cc(-c5nnn[nH]5)ccc4n3C3CCCCC3)cc2)cc1 [Example 26] | 0.19
14 | O=C(O)c1ccc(-c2cc(Cl)cc(Cl)c2)c(COc2ccc(-c3nc4cc(-c5nnn[nH]5)ccc4n3C3CCCCC3)cc2)c1 [Example 27] | 1.01
15 | O=C(O)c1ccc(-c2cccc3ccccc23)c(COc2ccc(-c3nc4cc(-c5nnn[nH]5)ccc4n3C3CCCCC3)cc2)c1 [Example 28] | 0.62
16 | O=C(O)c1ccc(-c2ccccc2-c2ccccc2)c(COc2ccc(-c3nc4cc(-c5nnn[nH]5)ccc4n3C3CCCCC3)cc2)c1 [Example 29] | 0.25
17 | O=C(O)c1ccc(-c2ccc(F)c(Cl)c2)c(COc2ccc(-c3nc4cc(-c5nnn[nH]5)ccc4n3C3CCCCC3)cc2)c1 [Example 30] | 0.04
18 | O=C(O)c1ccc(-c2ccc(C(F)(F)F)cc2)c(COc2ccc(-c3nc4cc(-c5nnn[nH]5)ccc4n3C3CCCCC3)cc2)c1 [Example 31] | 0.06
19 | CC(=O)Nc1cccc(-c2ccc(C(=O)O)cc2COc2ccc(-c3nc4cc(-c5nnn[nH]5)ccc4n3C3CCCCC3)cc2)c1 [Example 32] | 0.04

Row | SMILES | IC50 [µM]
20 | O=C(O)c1ccc(-c2cccc(O)c2)c(COc2ccc(-c3nc4cc(-c5nnn[nH]5)ccc4n3C3CCCCC3)cc2)c1 [Example 33] | 0.04
21 | N#Cc1ccc(-c2ccc(C(=O)O)cc2COc2ccc(-c3nc4cc(-c5nnn[nH]5)ccc4n3C3CCCCC3)cc2)cc1 [Example 34] | 0.04
22 | O=C(O)c1ccc(-c2ccccc2)c(COc2ccc(-c3nc4cc(-c5nnn[nH]5)ccc4n3C3CCCCC3)cc2)c1 [Example 35] | 0.07
23 | O=Cc1ccccc1-c1ccc(C(=O)O)cc1COc1ccc(-c2nc3cc(-c4nnn[nH]4)ccc3n2C2CCCCC2)cc1 [Example 36] | 0.83
24 | O=Cc1ccc(-c2ccc(C(=O)O)cc2COc2ccc(-c3nc4cc(-c5nnn[nH]5)ccc4n3C3CCCCC3)cc2)cc1 [Example 37] | 0.07
25 | O=C(O)c1ccc(-c2ccc([N+](=O)[O-])cc2)c(COc2ccc(-c3nc4cc(-c5nnn[nH]5)ccc4n3C3CCCCC3)cc2)c1 [Example 41] | 0.05
26 | O=C(O)c1ccc(-c2ccc(CO)cc2)c(COc2ccc(-c3nc4cc(-c5nnn[nH]5)ccc4n3C3CCCCC3)cc2)c1 [Example 42] | 0.05
27 | Cc1ccc(-c2ccc(C(=O)O)cc2COc2ccc(-c3nc4cc(-c5nnn[nH]5)ccc4n3C3CCCCC3)cc2)cc1N [Example 43] | 0.24
28 | COc1ccc(-c2ccc(C(=O)O)cc2COc2ccc(-c3nc4cc(-c5nnn[nH]5)ccc4n3C3CCCCC3)cc2)cc1OC [Example 44] | 0.08
29 | CC(=O)c1ccc(-c2ccc(C(=O)O)cc2COc2ccc(-c3nc4cc(-c5nnn[nH]5)ccc4n3C3CCCCC3)cc2)cc1 [Example 45] | 0.08
30 | O=C(O)c1ccc(-c2ccc(O)cc2)c(COc2ccc(-c3nc4cc(-c5nnn[nH]5)ccc4n3C3CCCCC3)cc2)c1 [Example 46] | 0.06
31 | O=C(O)C=Cc1ccc(-c2ccc(C(=O)O)cc2COc2ccc(-c3nc4cc(-c5nnn[nH]5)ccc4n3C3CCCCC3)cc2)cc1 [Example 47] | 0.05
32 | O=C(c1ccc(-c2ccc(Cl)cc2)c(COc2ccc(-c3nc4cc(-c5nnn[nH]5)ccc4n3C3CCCCC3)cc2)c1)N1CCC(O)CC1 [Example 48] | 0.32
33 | CNC(=O)c1ccc(-c2ccc(C#N)cc2)c(COc2ccc(-c3nc4cc(-c5nnn[nH]5)ccc4n3C3CCCCC3)cc2)c1 [Example 49] | 0.08
34 | CNC(=O)c1ccc(-c2ccc(Cl)cc2)c(COc2ccc(-c3nc4cc(-c5nnn[nH]5)ccc4n3C3CCCCC3)cc2)c1 [Example 50] | 0.23
35 | CC(C)(C)OC(=O)C(Cc1ccc(OC(C)(C)C)cc1)NC(=O)c1cccc(COc2ccc(-c3nc4cc(-c5nnn[nH]5)ccc4n3C3CCCCC3)cc2)c1 (stereo not shown) [Example 51] | 0.93
36 | CC(NC(=O)c1ccc(-c2cccc(O)c2)c(COc2ccc(-c3nc4cc(-c5nnn[nH]5)ccc4n3C3CCCCC3)cc2)c1)C(=O)O (stereo not shown) [Example 52] | 0.47
37 | O=C(NC(Cc1ccc(O)cc1)C(=O)O)c1ccc(-c2cccc(O)c2)c(COc2ccc(-c3nc4cc(-c5nnn[nH]5)ccc4n3C3CCCCC3)cc2)c1 (stereo not shown) [Example 53] | 0.57

From patent publication US6803374B2, “Compounds useful for treating hepatitis C virus” (priority 2001, dated 2004)
